Where a SMILES comes first, the peptide text is derived from it.
How the values were obtained:
[1] = system: PC3 cells; details: MTT
Experimental: PC3 cells were seeded at 8000 cells per well in 150 μl of media (DMEM medium+5% FBS) in a 96 well plate.

[2] = system: cleaved PARP in PC3 cells; assay: Detection of cleaved PARP by Western blot in PC3 cells; type: cell-based
Experimental: (§1) Apoptosis was analyzed either by cell cycle analysis or by PARP cleavage estimation. The amount of cleaved PARP is proportional to the amount of cells undergoing apoptosis (see for example Boulares A. H., et al., 1999, JBC 274:22932-22940).
FIG. 3 presents results of detection of cleaved PARP in PC3 cells treated with CGEN-CL1 combined with or without Paclitaxel. PC3 cells were treated with CGEN-CL1 (SEQ ID NO:1), alone or in combination with Paclitaxel, for 48, 72 and 96 hours. Cleaved PARP was detected in cell lysates by Western blot analysis. […] Elevation of the amount of cleaved PARP indicates an increase in apoptotic cells.

[3] = system: A549 cells; assay: MTT viability assay of A549 cells, CGEN-CL1 pre-incubated with helix partner; type: cell-based, human; details: 150 nM CGEN-CL1 pre-incubated 30 min with equimolar SEQ ID NO:5
Experimental: In order to evaluate whether the two computationally identified α-helices (CGEN-CL1 (SEQ ID NO: 1) and its helix partner (SEQ ID NO: 5)) bind to each other in the Clusterin protein, a co-incubation of the two peptides was analyzed for its ability to eliminate the biological activity of CGEN-CL1.
Pre-incubation for 30 minutes of 150 nM CGEN-CL1 peptide (SEQ ID NO:1) with an equimolar concentration of the helix partner (SEQ ID NO:5) was carried out at room temperature. CGEN-CL1 peptide (SEQ ID NO:1) alone, or the helix partner (SEQ ID NO:5) alone or the pre-incubated CGEN-CL1 peptide (SEQ ID NO:1) with helix partner (SEQ ID NO:5) were used for viability assay of A549 cells, using MTT assay as described in Example 2 herein.

[4] = system: SK-MEL melanoma cells; assay: MTT assay, growth of SK-MEL cells treated with CGEN-CL1; type: cell-based
Experimental: CGEN-CL1 as synthesized in Example 1 was analyzed for its ability to induce growth arrest in various cancer cell lines, such as: breast cancer cell line MCF-7 (Adenocarcinoma, Breast, HTB-22, ATCC), PC3 (Adenocarcinoma, Prostate, CRL-1435, ATCC), A549 (carcinoma, Lung, CCL-185, ATCC), HT-29 (Colorectal Adenocarcinoma, Colon, HTB-38, ATCC) and SK-mel 5 (Melanoma, Skin, HTB70, ATCC).
SK-MEL 5 cells were seeded at 10,000 cells per well in 150 μl of media (DMEM medium+5% FBS) in a 96 well plate.
CGEN-CL1 (1 mg dissolved in 2500 of Sodium bi-carbonate to a stock concentration of 4 mg/ml) was added to the wells in 500 of medium (final volume of 2000) as detailed in Table 2. The relative growth was normalized to controls where CGEN-CL1 was not added to wells.
(§2) 20 μl of MTT (3-(4,5-Dimethyl-2-thiazolyl)-2,5-diphenyl-2H-tetrazolium bromide) solution (Sigma Cat#M5655, lot#085k5322, 1 gr was dissolved in 200 ml H2O and filtered, giving a final concentration of 5 mg/ml) was added to each well and incubated for 4 hours at 37° C. after which the medium was vacuumed and 100 μl of DMSO was added to each well. Absorbance was measured in an ELISA reader at 492 nm.

[5] = biological target: T1, recombinant human clusterin (Homo sapiens, UniProt P10909); assay: BIAcore SPR, CGEN-CL1 co-incubated with partner helix, binding to clusterin; details: CGEN-CL1 and SEQ ID NO:5, 10 μM each, preincubated 30 minutes
T1 construct: purchased Biovendor RD172034100
T1 sequence (P10909 23-449): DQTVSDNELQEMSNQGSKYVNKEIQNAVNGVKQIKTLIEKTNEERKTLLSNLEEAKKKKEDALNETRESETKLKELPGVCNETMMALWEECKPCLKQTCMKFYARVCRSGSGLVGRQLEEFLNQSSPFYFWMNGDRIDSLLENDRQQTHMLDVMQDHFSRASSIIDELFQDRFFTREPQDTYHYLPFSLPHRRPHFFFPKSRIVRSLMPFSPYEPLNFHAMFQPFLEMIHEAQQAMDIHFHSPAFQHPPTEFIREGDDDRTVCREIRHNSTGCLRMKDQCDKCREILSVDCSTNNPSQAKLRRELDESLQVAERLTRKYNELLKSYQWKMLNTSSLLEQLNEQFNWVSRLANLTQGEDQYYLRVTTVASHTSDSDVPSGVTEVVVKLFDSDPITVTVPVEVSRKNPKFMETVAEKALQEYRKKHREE
Experimental: Peptide-protein interaction was analyzed using surface plasmon resonance. Analysis of the interaction between CGEN-CL1 [SEQ ID NO:1] and recombinant human clusterin (Biovendor, Modrice, Czech republic cat no: RD172034100) was conducted using the BIAcore biosensor (Pharmacia Biosensor, Uppsala, Sweden). Clusterin was immobilized directly to a CM5 sensor chip (2000 resonance units (RU)). Solution containing either 10 μM of CGEN-CL1 [SEQ ID NO:1] peptide or a mixture of CGEN-CL1 and its partner helix (SEQ ID NO:5), 10 μM each, preincubated for 30 minutes at room temperature, was injected to the BIAcore. As a background, the solutions were also injected onto an empty flow cell with no immobilized ligand and the binding levels achieved were subtracted. Data was analyzed using BIAevaluation software.

[6] = system: prostate adenocarcinoma cell line PC3; assay: MTT assay, CGEN-CL1 and/or paclitaxel on PC3 cells; type: cell-based
Experimental: as §2
(§3) A549, PC3 and MCF7 cells were seeded at 6000, 8000 and 10,000 cells per well respectively in 150 μl of media (DMEM medium+5% FBS) in 96 well plates.
(§4) Paclitaxel (Sigma T7402, Lot. 036k1217, Mw 853.9, 5 mg dissolved in 585 μl DMSO to a stock concentration of 10 mM, stored at −20° C.) and/or CGEN-CL1 (1 mg dissolved in 250 μl of sodium bi-carbonate to a stock concentration of 4 mg/ml) were added to the wells in 25 μl of medium (final volume of 200 μl) as detailed in Table 3. The relative growth was normalized to controls where neither paclitaxel nor CGEN-CL1 was added to wells.
(§5) An MTT assay was performed as described above in Example 2.

[7] = system: PC3 cells; assay: Cell cycle analysis by propidium iodide staining (FACS) in PC3 cells; type: cell-based; details: 300 nM or 1 μM CGEN-CL1, PI staining
Experimental: as §1
Cell Cycle Analysis was carried out by Propidium Iodide (PI) Staining. The cells were trypsinized and suspended in DMEM medium+10% FCS. Following centrifugation (1000 rpm, 5 min) the cell pellet was suspended in PBS (1 ml). Fixation with EtOH was performed as follows: cell suspension was transferred into 2.5 ml absolute EtOH (final concentration approx. 70%) by pipetting or by vortexing the suspension at half speed while adding the EtOH) to prevent clustering of cells during the fixation. EtOH fixated cells were incubated on ice for 15 min (or overnight at −20° C.).
Propidium Iodide (PI) staining of the cells was carried out as follows: the cells were pelleted at 1500 rpm for 5 min and then suspended in 500 μl PI-solution (in PBS: 50 μg/ml PI from 50× stock solution (2.5 mg/ml); 0.1 mg/ml RNase A; 0.05% Triton X-100), following incubation for 40 min at 37° C. Then 3 ml of PBS were added, and the cells were pelleted at 1500 rpm, 5 min. The cell pellet was suspended in 500 μl PBS for flow analysis. The flow analysis was carried out using the following approximate settings (on FACSort): FL1: 570 V log; FL2: 470 V linear.

[8] = system: lung carcinoma cell line A549; assay: MTT assay, CGEN-CL1 and/or paclitaxel on A549 cells; type: cell-based, human
Experimental: as §2, §3, §4, §5

## CC[C@H](C)[C@H](NC(=O)[C@H](CCCNC(=N)N)NC(=O)[C@H](CC(=O)O)NC(=O)CNC(=O)[C@H](CC(N)=O)NC(=O)[C@H](CCSC)NC(=O)[C@H](Cc1c[nH]c2ccccc12)NC(=O)[C@H](Cc1ccccc1)NC(=O)[C@H](Cc1ccc(O)cc1)NC(=O)[C@H](Cc1ccccc1)NC(C)=O)C(=O)N[C@@H](CC(=O)O)C(=O)N[C@@H](CO)C(=O)N[C@@H](CC(C)C)C(=O)N[C@@H](CC(C)C)C(=O)N[C@@H](CCC(=O)O)C(=O)N[C@@H](CC(N)=O)C(=O)N[C@@H](CC(=O)O)C(=O)N[C@@H](CCCNC(=N)N)C(=O)N[C@@H](CCC(N)=O)C(=O)N[C@@H](CCC(N)=O)C(=O)N[C@H](C(N)=O)[C@@H](C)O [CGEN-CL1] (Ac-FYFWMNGDRIDSLLENDRQQT-NH2)
[1]
  concentration evoking the maximal effect (as little as): 15 nM
[2]; PC3 cells treated with Paclitaxel plus CGEN-CL1, 48 hours
  amount of cleaved PARP: dramatically enhanced the amount of cleaved PARP
[2]; PC3 cells, CGEN-CL1 alone, 48 hours
  amount of cleaved PARP: caused an enhancement in the amount of cleaved PARP
[2]; PC3 cells, CGEN-CL1 alone, 72 hours, administration at time zero and after 48 hours
  amount of cleaved PARP: significant increase in cleaved PARP
[3]
  biological effect (growth inhibition) of CGEN-CL1 in the presence of partner helix peptide: abolished
[4]
  growth inhibition as revealed by cellular viability: evoked growth inhibition
[5]
  binding of CGEN-CL1 to recombinant Clusterin after co-incubation with partner helix: completely abolished the binding
[6]
  CGEN-CL1 concentration that sensitized cells to paclitaxel at sub-minimal doses (as little as): 7 nM
[6]; 60 nM CGEN-CL1 combined with 5 nM paclitaxel
  growth inhibition: same growth inhibition rates as the growth inhibition achieved by 45 nM of paclitaxel alone
[6]; 60 nM CGEN-CL1 combined with 45 nM paclitaxel
  growth inhibition relative to 45 nM of paclitaxel alone: 1.5 fold
[6]; CGEN-CL1 at different concentrations with different doses of paclitaxel
  effect between CGEN-CL1 and paclitaxel: synergistic effect
[7]
  percentage of apoptotic cells: increased the percentage of apoptotic cells
  percentage of cells in cell cycle phases: increased the percentage of cells in cell cycle phases G0/G1 and G2/M
[8]
  CGEN-CL1 concentration that sensitizes cells to sub-minimal concentrations of paclitaxel (as little as): 1 nM
[8]; CGEN-CL1 + paclitaxel
  maximal effect (inhibition) in combination with paclitaxel: 73%
[8]; single agent
  maximal effect (inhibition) alone: 48%

Source: patent US8575107B2, “Clusterin derived peptide” (Compugen Ltd., priority 2008, dated 2013)
